Source: patent publication US11731972B2, “Spiro compounds as glycosidase inhibitors” (Asceneuron SA, priority 2018, dated 2023)

Target: His-Tagged hOGA (human O-GlcNAcase) (Homo sapiens (Human), UniProt O60502)
Test: Human O-GlcNAcase enzyme inhibition assay (Example B01)
Type: biochemical
Conditions: OGA enzyme inhibition assay; FL-GlcNAc substrate, 60 min, room temperature, pH 6.5
Protocol: Example B01: Human O-GlcNAcase Enzyme Inhibition Assay
5 μl of the appropriate concentration of a solution of inhibitor in McIlvaine's Buffer (pH 6.5) in 2% DMSO (for a dose response curve calculation) is added into each well of a 384-well plate (Greiner, 781900). Then, 20 nM of His-Tagged hOGA and 10 μM of FL-GlcNAc (Fluorescein mono-beta-D-(2-deoxy-2-N-acetyl) glucopyranoside; Marker Gene Technologies Inc, M1485) were added to the 384-well plate for a final volume of 20 μl. After incubation for 60 min at room temperature, the reaction was terminated by the addition of 10 μL of stop buffer (200 mM glycine, pH 10.75). The level of fluorescence (λexc 485 nm; (λemm 520 nm) was read on a PHERAstar machine. The amount of fluorescence measured was plotted against the concentration of inhibitor to produce a sigmoidal dose response curve to calculate an IC50. All individual data was corrected by subtraction of the background (Thiamet 3 uM=100% inhibition) whilst 0.5% DMSO was considered as the control value (no inhibition).

His-Tagged hOGA (human O-GlcNAcase), sequence (O60502 whole entry): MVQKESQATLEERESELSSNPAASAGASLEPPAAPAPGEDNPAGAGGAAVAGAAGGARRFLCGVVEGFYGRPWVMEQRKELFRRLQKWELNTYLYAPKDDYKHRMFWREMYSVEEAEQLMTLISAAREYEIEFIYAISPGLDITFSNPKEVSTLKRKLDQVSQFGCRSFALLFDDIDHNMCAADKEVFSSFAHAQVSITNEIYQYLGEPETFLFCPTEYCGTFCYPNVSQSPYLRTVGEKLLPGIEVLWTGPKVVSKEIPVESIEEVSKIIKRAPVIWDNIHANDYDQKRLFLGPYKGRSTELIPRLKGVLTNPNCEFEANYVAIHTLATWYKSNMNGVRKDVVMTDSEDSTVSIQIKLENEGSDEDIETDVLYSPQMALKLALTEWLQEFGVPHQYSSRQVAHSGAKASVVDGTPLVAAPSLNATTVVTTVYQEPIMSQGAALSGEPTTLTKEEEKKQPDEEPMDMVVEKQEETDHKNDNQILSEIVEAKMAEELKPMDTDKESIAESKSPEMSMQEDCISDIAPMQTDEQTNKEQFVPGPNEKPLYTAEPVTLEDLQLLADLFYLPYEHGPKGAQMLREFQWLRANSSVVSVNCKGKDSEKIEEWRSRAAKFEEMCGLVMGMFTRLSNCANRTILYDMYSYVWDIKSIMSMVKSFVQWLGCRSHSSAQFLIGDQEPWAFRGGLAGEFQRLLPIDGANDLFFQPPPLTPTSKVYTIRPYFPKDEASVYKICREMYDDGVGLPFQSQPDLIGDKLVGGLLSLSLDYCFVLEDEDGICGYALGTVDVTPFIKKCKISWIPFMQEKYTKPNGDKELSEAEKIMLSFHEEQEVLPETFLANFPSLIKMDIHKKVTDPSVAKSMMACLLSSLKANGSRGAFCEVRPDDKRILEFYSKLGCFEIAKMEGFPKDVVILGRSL

| Structure (SMILES) | IC50 |
| --- | --- |
| CC(c1ccc2scnc2c1)N1CCC2(CC1)NC(=O)N(c1cncnc1)C2=O (racemic) [Example 62] | 50 to 200 nM |
| Cc1cc(N2CCC3(CCN(C(C)c4ccc5scnc5c4)CC3)C2)n2nccc2n1 (racemic) [Example 14, 5-(1-(2-(5-methylpyrazolo[1,5-a]pyrimidin-7-yl)-2,8-diazaspiro[4.5]decan-8-yl)ethyl)benzo[d]thiazole] | 200 to 1000 nM |
| CC(c1ccc2scnc2c1)N1CCC2(CC1)C(=O)Nc1ccccc12 (racemic) [Example 20, 1′-(1-(benzo[d]thiazol-5-yl)ethyl)spiro[indoline-3,4′-piperidin]-2-one] | 200 to 1000 nM |
| CC(=O)Nc1ncc(CN2CCC3(CC2)CC(=O)N(c2ccc(C#N)cc2)C3)s1 (racemic) [IA7] | 200 to 1000 nM |
| CC(c1ccc2c(c1)OCC2)N1CCC2(CC1)CC(=O)N(Cc1ccc(S(C)(=O)=O)cc1)C2 (racemic) [Example 18, 8-(1-(2,3-dihydrobenzofuran-6-yl)ethyl)-2-(4-(methylsulfonyl)benzyl)-2,8-diazaspiro[4.5]decan-3-one] | 200 to 1000 nM |
| CSc1cnc(N2CC3(CCN(Cc4cnc(NC(C)=O)s4)CC3)NC2=O)nc1 (racemic) [IA6] | < 50 nM |
| CC(c1ccc2scnc2c1)N1CCC2(CCN(c3ccc(C#N)cc3)C2=O)CC1 (racemic) [Example 27, 4-(8-(1-(benzo[d]thiazol-5-yl)ethyl)-1-oxo-2,8-diazaspiro[4.5]decan-2-yl)benzonitrile] | 200 to 1000 nM |
| CC(c1ccc2scnc2c1)N1CCC2(CC1)NC(=O)N(Cc1ccc(S(C)(=O)=O)cc1)C2=O (centres unmarked) [Example 10] | 50 to 200 nM |
| CC(c1ccc2scnc2c1)N1CCC2(CC1)CN(c1cccnn1)C(=O)N2 (racemic) [Example 59] | < 50 nM |
| CC(c1ccc2scnc2c1)N1CCC2(CC1)CN(c1cccc(S(C)(=O)=O)c1)C(=O)N2 (racemic) [Example 35, 8-(1-(benzo[d]thiazol-5-yl)ethyl)-3-(3-(methylsulfonyl)phenyl)-1,3,8-triazaspiro[4.5]decan-2-one] | 50 to 200 nM |
| CC(c1ccc2c(c1)OCC2)N1CCC2(CC1)C(=O)N(Cc1ccc(C#N)cc1)C(=O)N2C (racemic) [Example 74] | 1000 to 10000 nM |
| CC(c1ccc2scnc2c1)N1CCC2(CC1)NC(=O)N(C)C2=O (racemic) [Example 1, 8-(1-(benzo[d]thiazol-5-yl)ethyl)-3-methyl-1,3,8-triazaspiro[4.5]decane-2,4-dione] | 200 to 1000 nM |
| Cc1cc(N2CC3(CCN(C(C)c4ccc5c(c4)OCC5)CC3)CC2=O)n2nccc2n1 (racemic) [Example 16, 8-(1-(2,3-dihydrobenzofuran-6-yl)ethyl)-2-(5-methylpyrazolo[1,5-a]pyrimidin-7-yl)-2,8-diazaspiro[4.5]decan-3-one] | 1000 to 10000 nM |
| CC(c1ccc2scnc2c1)N1CCC2(CC1)CC(=O)N(c1ccc(C#N)cc1)C2 (racemic) [Example 15, 4-(8-(1-(benzo[d]thiazol-5-yl)ethyl)-3-oxo-2,8-diazaspiro[4.5]decan-2-yl)benzonitrile] | 1000 to 10000 nM |
